This is an account of results in publication PMC7688903 (Frontiers in Microbiology, 2020).

≈ marks a conversion by molar mass, not a printed value. Where a SMILES comes first, the peptide text is derived from it. Where no end group is shown, it is not given here. [ ]: non-standard residue; d: D form. 2Thi = N[C@@H](Cc1cccs1)C(=O)O

One series has as its system human plasma proteases. Nature of the series: in vitro.
For series [1], the system named is proteases secreted by S. aureus ATCC 25923. In words: in vitro. The note with it: for remaining at 24 h, 0.5 mg/mL: Staphylococcus aureus, S. aureus ATCC 25923 culture supernatant, pH 8; for Percent of remained peptide amount after incubation (%): S. aureus ATCC 25923 culture supernatant (MH broth), pH 8.0, 0.22 μm filtered, peptide 0.5 mg/mL, 37°C, 24 h, RP-HPLC. As to the method: The stabilities of the peptides toward proteases secreted by E. coli ATCC 25922, P. aeruginosa ATCC 27853, A. baumannii ATCC 19606, S. aureus ATCC 25923, and C. albicans ATCC 10231 were also examined. Microbial supernatants were prepared by resuspending single colonies of each strain in 20 mL of an appropriate culture medium followed by incubation at 37°C overnight. MH broth and 2% tryptone/2% dextrose were used as the culture media for bacteria and yeast, respectively. Each culture was then centrifuged at 12,000 × g for 10 min and the supernatant was adjusted to pH 8.0 with HCl or NaOH and then filtered through a 0.22 μm sterile filter membrane ([Zaet et al., 2017]). The peptides were then dissolved in the filtered supernatants to a concentration of 0.5 mg/mL, and the peptide-free supernatants were used as negative controls. The samples were incubated at 37°C for 24 h in a water bath and then analyzed by RP-HPLC as described above.

The test system of another series is P. aeruginosa ATCC 27853. Format: cell-based, Pseudomonas aeruginosa. The following applies: ATCC 27853, 20 h. The method, then: (§1) The antimicrobial activities of the peptides were tested against E. coli ATCC 25922, P. aeruginosa ATCC 27853, carbapenem-resistant P. aeruginosa SIPI-012, A. baumannii ATCC 19606, carbapenem-resistant A. baumannii SIPI-025, S. aureus ATCC 25923, and C. albicans ATCC 10231. The minimum inhibitory concentration (MIC) values were determined using the microdilution method according to Clinical and Laboratory Standards Institute guidelines ([CLSI, 2008], [2012]). The peptides were dissolved in 10 mM PB to a concentration of 1280 μg/mL as stock solutions.
(§2) For inoculum preparation of bacteria, morphologically similar colonies selected from fresh MH agar plates were transferred using a loop into approximately 10 mL of MH broth in a capped test tube and vortexed. The suspension was adjusted with MH broth to achieve a turbidity equivalent to a 0.5 McFarland standard (BaSO4 solution prepared spectrophotometrically). A working suspension was prepared by making a 1:15 dilution followed by a 1:20 dilution of the stock suspension with MH broth medium to obtain approximately 5 × 10^5 CFU/mL. For inoculum preparation of yeast, five fresh colonies of approximately 1 mm diameter were picked from 24-hour-old cultures of C. albicans and suspended in 5 mL of sterile 0.85% saline. The resulting suspension was vortexed and the cell density was adjusted by adding sufficient sterile saline to achieve a turbidity equivalent to a 0.5 McFarland standard. A working suspension was prepared by making a 1:100 dilution followed by a 1:20 dilution of the stock suspension with RPMI 1640 broth medium to obtain 0.5 × 10^3 to 2.5 × 10^3 CFU/mL. Intermediate twofold dilutions of the peptides were prepared in MH broth and RPMI 1640 medium, and 90 μL aliquots were added to each well in addition to 10 μL of the inoculum prepared above.
(§3) Each plate included a growth control well and a sterility (uninoculated) control well. Colistin, vancomycin hydrochloride, and amphotericin B were used as positive controls for gram-negative bacteria, gram-positive bacteria, and fungi, respectively. The bacterial and fungal plates were incubated at 37°C for 20 h and 35°C for 48 h, respectively, both under ambient atmosphere. The inhibition of microbial growth was assessed visually. The MICs were determined from independent triplicate assays.

Series [2] deals with carbapenem-resistant P. aeruginosa (CRPA) SIPI-012. The class given is cell-based, Pseudomonas aeruginosa. The following applies: carbapenem-resistant (CRPA) SIPI-012, 20 h. As to the method: as §1, §2, §3
The test system of another series is human erythrocytes. In words: Hemolytic activity assay. The class given is cell-based. The note with it: human RBC in PB, 37°C, 1 h, OD420, total lysis control 0.1% SDS, three technical replicates. As to the method:
Whole blood was obtained from a healthy volunteer. The red blood cells (RBC) were then centrifuged (800 × g, 10 min), washed twice with PB, resuspended in 1 mL of PB, and incubated with various concentrations of the peptides (32–128 μM) at 37°C for 1 h. As a positive control, total lysis of the RBC was accomplished by incubation with 0.1% SDS. For each condition, three technical replicates were performed. After incubation, the RBC were centrifuged at 800 × g for 10 min and the amount of hemoglobin released into the supernatant was determined by measuring the optical density OD420 using a SpectraMax i3x microplate reader (Molecular Devices) ([Zaet et al., 2017]).

The test system of the next series is A. baumannii ATCC 19606. The class given is cell-based, Acinetobacter baumannii. The note with it: ATCC 19606, 20 h. As to the method:
as §1, §2, §3

The test system of series [3] is carbapenem-resistant A. baumannii (CRAB) SIPI-025. The class given is cell-based, Acinetobacter baumannii. The note with it: carbapenem-resistant (CRAB) SIPI-025, 20 h. The method, then: as §1, §2, §3
Another series relates to S. aureus ATCC 25923. In words: microbe, parasite or virus in culture. The note with it: ATCC 25923, 20 h. The class given is cell-based, Staphylococcus aureus. As to the method:
as §1, §2, §3

The subject of another series is RAW 264.7 cells. In words: Cell viability assay (MTT). The class given is cell-based, mouse. The following applies: 1–128 μM peptide in DMEM with 4% FBS, 42 h, 595 nm, triplicate. As to the method:
The peptides were dissolved in ddH2O to a concentration of 256 μM. RAW 264.7 cells were cultured in 100 μL of DMEM containing 10% FBS and seeded at a density of 1 × 10^4 cells in a 96-well culture plate. The plate was incubated at 37°C under 5% CO2 atmosphere overnight. After attaining 80% confluency, the cells were treated with various concentrations of the peptides (1–128 μM) dissolved in DMEM containing 4% FBS for 42 h. Cytotoxicity was determined using the MTT tetrazolium reduction assay and quantified spectrophotometrically at 595 nm using a SpectraMax i3x microplate reader. The cell viability was calculated with respect to control samples treated only with DMEM containing 4% FBS ([Khara et al., 2016]). Each test was done in triplicate and the concentration required for 50% inhibition of viability (IC50) was determined.

The test system of the next series is E. coli ATCC 25922. Format: cell-based, Escherichia coli. The note with it: ATCC 25922, 20 h. The method, then:
as §1, §2, §3

Another series has as its system C. albicans ATCC 10231. Nature of the series: microbe, parasite or virus in culture. The note with it: ATCC 10231, 48 h. The class given is cell-based, Candida albicans. The method, then:
as §1, §2, §3

In the series on human plasma proteases, KRLFKRLFKYLRRF-NH2 [LP01] yielded a metabolised at 2 h, 0.1 mg/mL of over 40%. Moreover, the metabolised at 4 h, 0.1 mg/mL in the series with human plasma proteases was over 50%. Besides, the amount remaining at 24 h, 0.5 mg/mL in series [1] came out at 33.3 ± 5.69%. For the same compound, the MIC in the series with P. aeruginosa ATCC 27853 came to 1 mg/L; in [2], 4 mg/L; with A. baumannii ATCC 19606, 2 mg/L; in [3] it was 2 mg/L; with S. aureus ATCC 25923, 1 mg/L; with E. coli ATCC 25922, 2 mg/L. The MIC in the series with C. albicans ATCC 10231 amounted to 4 mg/L. In addition, the “Hemolysis rate (%)” value in the series on human erythrocytes (64 μM) was found to be 29.58 ± 0.83%; in the series with human erythrocytes (128 μM), 37.14 ± 1.29 %. Further, the IC50 with RAW 264.7 cells stood at 16.6 ± 3.79 µM.
In the series with human plasma proteases, RRIFKRLFKYLRRF-NH2 [LP02] displayed a metabolised at 2 h, 0.1 mg/mL of over 40%. The compound further yielded a metabolised at 4 h, 0.1 mg/mL in the series with human plasma proteases of over 50%. The compound further gave a fraction remaining at 24 h, 0.5 mg/mL in series [1] of 19.7 ± 8.58%. Also, the MIC in the series on P. aeruginosa ATCC 27853 turned out to be 2 mg/L; in series [2] it was 8 mg/L; with A. baumannii ATCC 19606, 2 mg/L; in series [3], 4 mg/L; against S. aureus ATCC 25923 it was 1 mg/L; against E. coli ATCC 25922, 2 mg/L. Moreover, the MIC in the series with C. albicans ATCC 10231 turned out to be 8 mg/L. For the same compound, the “Hemolysis rate (%)” value worked out at 24.18 ± 2.01% in the series with human erythrocytes (64 μM) and 45.40 ± 2.40% in the series on human erythrocytes (128 μM). Further, in the series with RAW 264.7 cells, the IC50 came out at 14.4 ± 1.44 µM.
Turning to `CC(C)C[C@H](NC(=O)[C@H](Cc1ccc(O)cc1)NC(=O)[C@H](CCCCN)NC(=O)[C@H](CC(C)C)NC(=O)[C@H](CC(C)C)NC(=O)[C@H](CCCCN)NC(=O)[C@H](CCCCN)NC(=O)[C@H](Cc1cccs1)NC(=O)[C@H](CC(C)C)NC(=O)[C@H](CCCNC(=N)N)NC(=O)[C@@H](N)CCCCN)C(=O)N[C@@H](CCCNC(=N)N)C(=O)N[C@@H](CCCCN)C(=O)N[C@@H](Cc1cccs1)C(N)=O` [UP07] (H-KRL[2Thi]KKLLKYLRK[2Thi]-NH2), the metabolised at 2 h, 0.1 mg/mL with human plasma proteases is over 40%. Also, in the series on human plasma proteases, the metabolised at 4 h, 0.1 mg/mL is over 50%. In addition, the “Percent of remained peptide amount after incubation (%)” value in [1] is reported as 24.86 ± 3.88%. Also, the MIC was 1 mg/L (≈ 0.528 µM) against P. aeruginosa ATCC 27853; 4 mg/L (≈ 2.11 µM) in [2]; 2 mg/L (≈ 1.06 µM) in the series with A. baumannii ATCC 19606; 2 mg/L (≈ 1.06 µM) in series [3]; 1 mg/L (≈ 0.528 µM) against S. aureus ATCC 25923; 1 mg/L (≈ 0.528 µM) against E. coli ATCC 25922. The compound also registered an MIC in the series with C. albicans ATCC 10231 of 4 mg/L (≈ 2.11 µM). In addition, the “Hemolysis rate (%)” value is recorded as 18.23 ± 2.76 % in the series with human erythrocytes (64 μM) and 30.10 ± 2.61 % with human erythrocytes (128 μM). The compound further returned an IC50 in the series with RAW 264.7 cells of 17.5 ± 2.99 µM.
Compound `CC(C)C[C@H](NC(=O)[C@H](Cc1ccc(O)cc1)NC(=O)[C@H](CCCCN)NC(=O)[C@H](CC(C)C)NC(=O)[C@H](CC(C)C)NC(=O)[C@H](CCCCN)NC(=O)[C@H](CCCCN)NC(=O)[C@H](Cc1ccccc1)NC(=O)[C@H](CC(C)C)NC(=O)[C@H](CCCNC(=N)N)NC(=O)[C@@H](N)CCCCN)C(=O)N[C@@H](CCCNC(=N)N)C(=O)N[C@@H](CCCCN)C(=O)N[C@@H](Cc1cccs1)C(N)=O` [UP08] (H-KRLFKKLLKYLRK[2Thi]-NH2) gave a metabolised at 2 h, 0.1 mg/mL in the series on human plasma proteases of over 40%. Besides, the metabolised at 4 h, 0.1 mg/mL in the series with human plasma proteases was over 50%. In addition, the “Percent of remained peptide amount after incubation (%)” value in series [1] was 26.85 ± 2.61%. The MIC with P. aeruginosa ATCC 27853 was 2 mg/L (≈ 1.06 µM); in [2] it was 4 mg/L (≈ 2.12 µM); against A. baumannii ATCC 19606 it was 2 mg/L (≈ 1.06 µM); in series [3], 2 mg/L (≈ 1.06 µM); against S. aureus ATCC 25923, 1 mg/L (≈ 0.53 µM); against E. coli ATCC 25922 it was 2 mg/L (≈ 1.06 µM). This compound also returned an MIC in the series on C. albicans ATCC 10231 of 4 mg/L (≈ 2.12 µM). Moreover, the entries for the “Hemolysis rate (%)” value with human erythrocytes (64 μM) and with human erythrocytes (128 μM) were 52.49 ± 2.25 % and 86.84 ± 1.24 %, respectively. Besides, 14.6 ± 2.96 µM corresponded to half-maximal inhibition in the series with RAW 264.7 cells (IC50).
